We go through 33 compounds from patent publication US9040530B2, “1,2,4-triazine-6-carboxamide kinase inhibitors” (Portola Pharmaceuticals, Inc., priority 2012, dated 2015).

The target in the assay is T1, full length active recombinant SYK enzyme (Homo sapiens, UniProt P43405).
T1 construct: full length active recombinant SYK enzyme (Millipore, Calif.); purchased Millipore
Description: Inhibition of Syk tyrosine phosphorylation activity (LANCE TR-FRET kinase assay). The format is biochemical. To be noted: 1 nM active SYK enzyme, 550 nM SYK-substrate, 100 μM ATP, 1 hour at room temperature. For orientation: TR-FRET usually uses a lanthanide donor and a delayed reading to cut background.
In the case of `NC(=O)c1nnc(N[C@@H]2CCOC[C@@H]2N)nc1Nc1ccc2ncccc2c1` [Example 55, 3-(((3R,4R)-3-aminotetrahydro-2H-pyran-4-yl)amino)-5-(quinolin-6-ylamino)-1,2,4-triazine-6-carboxamide], the IC50 (usually the point on the concentration scale where inhibition reaches its midpoint) is 1 to 10 nM. Take `CC[C@@H](Nc1nnc(C(N)=O)c(Nc2cccc(F)c2)n1)C(N)=O` [Example 195, (R)-3-((1-amino-1-oxobutan-2-yl)amino)-5-((3-fluorophenyl)amino)-1,2,4-triazine-6-carboxamide]: the IC50 was 10 to 100 nM. As for `Cc1ccc(Nc2nc(N[C@H](CC3CC3)C(N)=O)nnc2C(N)=O)cc1C` [Example 210, (R)-3-((1-amino-3-cyclopropyl-1-oxopropan-2-yl)amino)-5-((3,4-dimethylphenyl)amino)-1,2,4-triazine-6-carboxamide], the figure is 1 to 10 nM; as for `NC(=O)c1nnc(N[C@@H]2CCCC[C@@H]2N)nc1Nc1ccc2ncccc2c1` [Example 47, 3-(((1R,2S)-2-aminocyclohexyl)amino)-5-(quinolin-6-ylamino)-1,2,4-triazine-6-carboxamide], 1 to 10 nM; as for `CC[C@@H](Nc1nnc(C(N)=O)c(Nc2ccc(Cl)cc2)n1)C(N)=O` [Example 200, (R)-3-((1-amino-1-oxobutan-2-yl)amino)-5-((4-chlorophenyl)amino)-1,2,4-triazine-6-carboxamide], 10 to 100 nM.

Turning to `Cc1cc(Nc2nc(N[C@@H]3CCOC[C@@H]3N)nnc2C(N)=O)sn1` [Example 142, 3-(((3R,4R)-3-aminotetrahydro-2H-pyran-4-yl)amino)-5-((3-methylisothiazol-5-yl)amino)-1,2,4-triazine-6-carboxamide], the IC50 lay within 10 to 100 nM. As to `CC(C)C[C@@H](Nc1nnc(C(N)=O)c(Nc2cncc(F)c2)n1)C(N)=O` [Example 16, (R)-3-((1-amino-4-methyl-1-oxopentan-2-yl)amino)-5-((5-fluoropyridin-3-yl)amino)-1,2,4-triazine-6-carboxamide], the IC50 is 100 to 1000 nM. As to `NC(=O)c1nnc(N[C@@H]2CCCC(F)(F)[C@@H]2N)nc1Nc1ccc2c(ccc[n+]2[O-])c1` [Example 50, 6-((3-(((1R,2R)-2-amino-3,3-difluorocyclohexyl)amino)-6-carbamoyl-1,2,4-triazin-5-yl)amino)quinoline 1-oxide], the IC50 fell in the range of 100 to 1000 nM. In the case of `CN(C)C(=O)c1ccc(Nc2nc(N[C@@H]3CCCC[C@@H]3N)nnc2C(N)=O)cc1` [Example 62, 3-(((1R,2S)-2-aminocyclohexyl)amino)-5-((4-(dimethylcarbamoyl)phenyl)amino)-1,2,4-triazine-6-carboxamide], the IC50 lay in the range of 100 to 1000 nM. For `CC[C@@H](Nc1nnc(C(N)=O)c(Nc2cnc3c(ccn3C)c2)n1)C(N)=O` [Example 152, (R)-3-((1-amino-1-oxobutan-2-yl)amino)-5-((1-methyl-1H-pyrrolo[2,3-b]pyridin-5-yl)amino)-1,2,4-triazine-6-carboxamide], the 50% inhibitory concentration (IC50) lay within 10 to 100 nM.

Take `Cn1ccc2c(Nc3nc(N[C@@H]4CCOC[C@@H]4N)nnc3C(N)=O)cccc21` [Example 82, 3-(((3R,4R)-3-aminotetrahydro-2H-pyran-4-yl)amino)-5-((1-methyl-1H-indol-4-yl)amino)-1,2,4-triazine-6-carboxamide]: the half-inhibitory concentration (IC50) was 1 to 10 nM. Turning to `Cn1ccc2ccc(Nc3nc(N[C@@H]4CCCC[C@@H]4N)nnc3C(N)=O)cc21` [Example 119, 3-(((1R,2S)-2-aminocyclohexyl)amino)-5-((1-methyl-1H-indol-6-yl)amino)-1,2,4-triazine-6-carboxamide], the IC50 was 1 to 10 nM. Take `NC(=O)c1nnc(N[C@@H]2CCOC[C@@H]2N)nc1Nc1cccc(C(F)(F)F)c1` [Example 251, 3-(((3R,4R)-3-aminotetrahydro-2H-pyran-4-yl)amino)-5-((3-(trifluoromethyl)phenyl)amino)-1,2,4-triazine-6-carboxamide]: the IC50 lay within 10 to 100 nM. Consider `CC(C)C[C@@H](Nc1nnc(C(N)=O)c(Nc2cccc3c2cnn3C)n1)C(N)=O` [Example 108, (R)-3-((1-amino-4-methyl-1-oxopentan-2-yl)amino)-5-((1-methyl-1H-indazol-4-yl)amino)-1,2,4-triazine-6-carboxamide], for which the 50% inhibitory concentration (IC50) lay in the range of 10 to 100 nM. On to `NC(=O)c1nnc(N[C@@H]2CCCC[C@@H]2N)nc1Nc1cc(F)cc(Cl)c1` [Example 21, 3-(((1R,2S)-2-aminocyclohexyl)amino)-5-((3-chloro-5-fluorophenyl)amino)-1,2,4-triazine-6-carboxamide], for which the IC50 lay within 1 to 10 nM. As for `NC(=O)c1nnc(N[C@@H]2CCCC[C@@H]2N)nc1Nc1cnc2ccc(F)cc2c1` [Example 122, 3-(((1R,2S)-2-aminocyclohexyl)amino)-5-((6-fluoroquinolin-3-yl)amino)-1,2,4-triazine-6-carboxamide], the figure is 10 to 100 nM. For `NC(=O)c1nnc(N[C@@H]2CCCC[C@@H]2N)nc1Nc1cnc2cccnc2c1` [Example 258, 5-((1,5-naphthyridin-3-yl)amino)-3-(((1R,2S)-2-aminocyclohexyl)amino)-1,2,4-triazine-6-carboxamide], the 50% inhibitory concentration (IC50) was 10 to 100 nM.

On to `Cc1ccc(Nc2nc(N[C@H](CC(F)F)C(N)=O)nnc2C(N)=O)cc1` [Example 143, (R)-3-((1-amino-4,4-difluoro-1-oxobutan-2-yl)amino)-5-(p-tolylamino)-1,2,4-triazine-6-carboxamide], for which the IC50 was in the range of 10 to 100 nM. For `Cc1ccc(Nc2nc(N[C@@H]3CCCC(F)(F)[C@@H]3N)nnc2C(N)=O)cc1F` [Example 205, 3-(((1R,2R)-2-amino-3,3-difluorocyclohexyl)amino)-5-((3-fluoro-4-methylphenyl)amino)-1,2,4-triazine-6-carboxamide], the IC50 lay within 10 to 100 nM. As for `Cn1ccc2c(Nc3nc(N[C@@H]4CCCC[C@@H]4N)nnc3C(N)=O)cncc21` [Example 148, 3-(((1R,2S)-2-aminocyclohexyl)amino)-5-((1-methyl-1H-pyrrolo[2,3-c]pyridin-4-yl)amino)-1,2,4-triazine-6-carboxamide], the IC50 lay in the range of 1 to 10 nM. Then `CC[C@@H](Nc1nnc(C(N)=O)c(Nc2ccc3c(c2)CCC3)n1)C(N)=O` [Example 211, (R)-3-((1-amino-1-oxobutan-2-yl)amino)-5-((2,3-dihydro-1H-inden-5-yl)amino)-1,2,4-triazine-6-carboxamide], with 1 to 10 nM; and `CC[C@@H](Nc1nnc(C(N)=O)c(Nc2cccc3c2cnn3C)n1)C(N)=O` [Example 107, (R)-3-((1-amino-1-oxobutan-2-yl)amino)-5-((1-methyl-1H-indazol-4-yl)amino)-1,2,4-triazine-6-carboxamide], with 10 to 100 nM; and `COc1cc(Nc2nc(N[C@@H]3CCOC[C@@H]3N)nnc2C(N)=O)ccc1Cl` [Example 256, 3-(((3R,4R)-3-aminotetrahydro-2H-pyran-4-yl)amino)-5-((4-chloro-3-methoxyphenyl)amino)-1,2,4-triazine-6-carboxamide], with 10 to 100 nM.

As to `CC[C@@H](Nc1nnc(C(N)=O)c(Nc2ccc(C#N)cc2)n1)C(N)=O` [Example 74, (R)-3-((1-amino-1-oxobutan-2-yl)amino)-5-((4-cyanophenyl)amino)-1,2,4-triazine-6-carboxamide], the IC50 was 100 to 1000 nM. Consider `CC[C@@H](Nc1nnc(C(N)=O)c(Nc2cnc3cccnc3c2)n1)C(N)=O` [Example 146, (R)-5-((1,5-naphthyridin-3-yl)amino)-3-((1-amino-1-oxobutan-2-yl)amino)-1,2,4-triazine-6-carboxamide], for which the IC50 lay in the range of 100 to 1000 nM. `COc1ccc(Nc2nc(N[C@@H]3CCCC[C@@H]3N)nnc2C(N)=O)cc1C(F)(F)F` [Example 114, 3-(((1R,2S)-2-aminocyclohexyl)amino)-5-((4-methoxy-3-(trifluoromethyl)phenyl)amino)-1,2,4-triazine-6-carboxamide]: the IC50 fell in the range of 1 to 10 nM. As for `CC[C@@H](Nc1nnc(C(N)=O)c(Nc2cccc(Cl)c2)n1)C(N)=O` [Example 194, (R)-3-((1-amino-1-oxobutan-2-yl)amino)-5-((3-chlorophenyl)amino)-1,2,4-triazine-6-carboxamide], the IC50 lay in the range of 10 to 100 nM. Regarding `NC(=O)c1nnc(N[C@@H]2CCNC2)nc1Nc1cccc(-c2ncccn2)c1` [Example 70, (R)-5-((3-(pyrimidin-2-yl)phenyl)amino)-3-(pyrrolidin-3-ylamino)-1,2,4-triazine-6-carboxamide], the IC50 lay within 10 to 100 nM.

For the compound `CC(C)C[C@@H](Nc1nnc(C(N)=O)c(Nc2ccc3ncccc3c2)n1)C(N)=O` [Example 53, (R)-3-((1-amino-4-methyl-1-oxopentan-2-yl)amino)-5-(quinolin-6-ylamino)-1,2,4-triazine-6-carboxamide], the IC50 was in the range of 1 to 10 nM. For `CC(C)[C@@H](Nc1nnc(C(N)=O)c(Nc2cccc3c2ccn3C)n1)C(N)=O` [Example 87, (R)-3-((1-amino-3-methyl-1-oxobutan-2-yl)amino)-5-((1-methyl-1H-indol-4-yl)amino)-1,2,4-triazine-6-carboxamide], the concentration for half-maximal inhibition (IC50) fell in the range of 10 to 100 nM. As for `CC[C@@H](Nc1nnc(C(N)=O)c(Nc2ccc(C)c(F)c2)n1)C(N)=O` [Example 196, (R)-3-((1-amino-1-oxobutan-2-yl)amino)-5-((3-fluoro-4-methylphenyl)amino)-1,2,4-triazine-6-carboxamide], the figure is 10 to 100 nM; as for `CC[C@@H](Nc1nnc(C(N)=O)c(Nc2ccc3ncccc3c2)n1)C(N)=O` [Example 51, (R)-3-((1-amino-1-oxobutan-2-yl)amino)-5-(quinolin-6-ylamino)-1,2,4-triazine-6-carboxamide], 1 to 10 nM; as for `CC[C@@H](Nc1nnc(C(N)=O)c(Nc2ccc(C)c(OC)c2)n1)C(N)=O` [Example 231, (R)-3-((1-amino-1-oxobutan-2-yl)amino)-5-((3-methoxy-4-methylphenyl)amino)-1,2,4-triazine-6-carboxamide], 10 to 100 nM.
